Measurements: ChEMBL document CHEMBL5356963, “Discovery of flavone-derivatives as the new skeleton of transient receptor potential vanilloid 3 channel antagonists” (Bioorg Med Chem Lett, 2024)
Values belong to the compound of their own block, whether it stands above or below them. Calls of active or inactive are those of the source. No cut-off for these calls is given here.

Legend:
Assay type in all cases: cell-based
[1] = biological target: T1, Transient receptor potential cation channel subfamily V member 3 (Homo sapiens) (UniProt Q8NET8); assay: Antagonist activity at human TRPV3 channel expressed in HEK293T cells assessed as inhibition of 2-APB induced channel current at 50 uM by whole cell patch clamp recordings relative to control
T1 sequence (whole entry): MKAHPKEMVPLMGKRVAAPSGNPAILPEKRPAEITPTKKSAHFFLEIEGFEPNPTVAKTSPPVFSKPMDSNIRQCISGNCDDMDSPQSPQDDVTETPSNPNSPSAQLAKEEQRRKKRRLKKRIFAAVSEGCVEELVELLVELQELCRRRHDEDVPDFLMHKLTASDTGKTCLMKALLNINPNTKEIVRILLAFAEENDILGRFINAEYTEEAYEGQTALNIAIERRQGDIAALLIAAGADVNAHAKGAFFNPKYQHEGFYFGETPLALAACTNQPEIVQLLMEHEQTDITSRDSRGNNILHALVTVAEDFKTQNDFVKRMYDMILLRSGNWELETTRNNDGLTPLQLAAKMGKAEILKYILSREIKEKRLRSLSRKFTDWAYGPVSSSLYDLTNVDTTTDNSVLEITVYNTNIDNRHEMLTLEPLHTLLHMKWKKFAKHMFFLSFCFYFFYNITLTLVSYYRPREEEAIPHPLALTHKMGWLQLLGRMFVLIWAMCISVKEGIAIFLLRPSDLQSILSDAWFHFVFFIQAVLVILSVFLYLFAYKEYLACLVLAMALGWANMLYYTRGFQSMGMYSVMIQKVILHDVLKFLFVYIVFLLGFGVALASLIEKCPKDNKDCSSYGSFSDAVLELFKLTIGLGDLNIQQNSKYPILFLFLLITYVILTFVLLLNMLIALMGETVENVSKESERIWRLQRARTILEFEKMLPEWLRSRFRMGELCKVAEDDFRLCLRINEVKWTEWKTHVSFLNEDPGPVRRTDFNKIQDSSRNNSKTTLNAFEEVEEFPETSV

[2] = biological target: T2, Transient receptor potential cation channel subfamily V member 3 (Homo sapiens, UniProt Q8NET8); assay: Antagonist activity at human TRPV3 channel expressed in HEK293T cells assessed as inhibition of 2-APB induced channel current by whole cell patch clamp recordings
T2 sequence (Q8NET8 whole entry): T1 sequence (whole entry)

[3] = biological target: Transient receptor potential cation channel subfamily A member 1 (Homo sapiens) (UniProt O75762); assay: Antagonist activity at TRPA1 (unknown origin) expressed in HEK293T cells assessed as inhibition of agonist induced channel current by whole-cell patch clamp recordings
[4] = biological target: Transient receptor potential cation channel subfamily V member 4 (Homo sapiens) (UniProt Q9HBA0); assay: Antagonist activity at TRPV4 (unknown origin) expressed in HEK293T cells assessed as inhibition of agonist induced channel current by whole-cell patch clamp recordings
[5] = biological target: Transient receptor potential cation channel subfamily M member 8 (Homo sapiens) (UniProt Q7Z2W7); assay: Antagonist activity at TRPM8 (unknown origin) expressed in HEK293T cells assessed as inhibition of agonist induced channel current by whole-cell patch clamp recordings
[6] = biological target: Transient receptor potential cation channel subfamily V member 1 (Homo sapiens) (UniProt Q8NER1); assay: Antagonist activity at TRPV1 (unknown origin) expressed in HEK293T cells assessed as inhibition of agonist induced channel current by whole-cell patch clamp recordings
Sequence of Transient receptor potential cation channel subfamily V member 1 (Homo sapiens) (Q8NER1 whole entry): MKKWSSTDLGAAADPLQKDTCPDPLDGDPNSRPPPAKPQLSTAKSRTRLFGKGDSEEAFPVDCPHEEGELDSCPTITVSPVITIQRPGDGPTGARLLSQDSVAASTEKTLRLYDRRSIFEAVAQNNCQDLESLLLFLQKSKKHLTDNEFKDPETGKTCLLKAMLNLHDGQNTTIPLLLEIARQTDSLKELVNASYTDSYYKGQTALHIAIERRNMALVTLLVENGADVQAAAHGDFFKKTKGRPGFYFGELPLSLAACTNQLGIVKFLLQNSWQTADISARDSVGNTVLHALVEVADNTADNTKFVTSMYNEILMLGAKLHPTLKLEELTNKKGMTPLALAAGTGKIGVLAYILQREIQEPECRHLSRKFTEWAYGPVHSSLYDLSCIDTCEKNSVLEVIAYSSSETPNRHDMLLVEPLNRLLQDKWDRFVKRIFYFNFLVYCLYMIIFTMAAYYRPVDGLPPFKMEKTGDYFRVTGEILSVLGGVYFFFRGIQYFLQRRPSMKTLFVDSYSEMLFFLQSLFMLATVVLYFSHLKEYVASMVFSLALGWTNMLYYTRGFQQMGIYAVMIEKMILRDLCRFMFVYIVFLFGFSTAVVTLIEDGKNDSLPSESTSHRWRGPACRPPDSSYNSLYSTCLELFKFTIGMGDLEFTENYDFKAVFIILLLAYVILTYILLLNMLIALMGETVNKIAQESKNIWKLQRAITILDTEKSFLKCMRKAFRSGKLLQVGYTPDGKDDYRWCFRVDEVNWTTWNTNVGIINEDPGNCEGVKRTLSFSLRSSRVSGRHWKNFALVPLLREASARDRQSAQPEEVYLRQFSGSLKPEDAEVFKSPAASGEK

Sequence of Transient receptor potential cation channel subfamily M member 8 (Homo sapiens) (Q7Z2W7 whole entry, looked up): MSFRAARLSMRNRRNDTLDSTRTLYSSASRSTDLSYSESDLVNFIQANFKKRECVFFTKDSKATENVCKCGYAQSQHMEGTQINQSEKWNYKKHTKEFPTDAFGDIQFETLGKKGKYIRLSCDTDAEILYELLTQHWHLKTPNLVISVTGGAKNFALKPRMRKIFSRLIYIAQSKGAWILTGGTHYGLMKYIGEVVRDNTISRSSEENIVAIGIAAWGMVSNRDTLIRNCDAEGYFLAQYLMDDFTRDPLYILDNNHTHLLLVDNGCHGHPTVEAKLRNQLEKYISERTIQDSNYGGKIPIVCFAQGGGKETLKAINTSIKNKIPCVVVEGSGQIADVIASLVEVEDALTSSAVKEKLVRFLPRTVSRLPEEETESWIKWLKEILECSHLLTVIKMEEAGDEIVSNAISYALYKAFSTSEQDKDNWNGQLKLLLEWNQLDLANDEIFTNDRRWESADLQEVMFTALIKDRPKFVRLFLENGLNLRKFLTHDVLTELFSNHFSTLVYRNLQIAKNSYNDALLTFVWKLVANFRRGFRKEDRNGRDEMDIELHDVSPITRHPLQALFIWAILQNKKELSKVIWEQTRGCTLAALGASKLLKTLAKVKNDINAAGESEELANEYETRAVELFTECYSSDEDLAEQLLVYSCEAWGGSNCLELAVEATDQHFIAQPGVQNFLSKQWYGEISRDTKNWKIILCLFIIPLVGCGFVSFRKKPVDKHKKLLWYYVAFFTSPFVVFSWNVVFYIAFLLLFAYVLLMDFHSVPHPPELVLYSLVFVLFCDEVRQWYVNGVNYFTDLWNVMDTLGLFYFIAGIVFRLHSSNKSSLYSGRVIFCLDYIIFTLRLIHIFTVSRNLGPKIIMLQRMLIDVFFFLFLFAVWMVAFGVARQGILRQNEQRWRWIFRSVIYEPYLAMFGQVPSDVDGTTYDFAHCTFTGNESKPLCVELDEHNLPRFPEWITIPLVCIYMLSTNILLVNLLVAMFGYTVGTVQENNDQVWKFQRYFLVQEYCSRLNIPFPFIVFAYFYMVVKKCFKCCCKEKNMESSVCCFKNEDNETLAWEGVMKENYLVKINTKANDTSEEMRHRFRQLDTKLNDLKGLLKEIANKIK
Sequence of Transient receptor potential cation channel subfamily V member 4 (Homo sapiens) (Q9HBA0 whole entry): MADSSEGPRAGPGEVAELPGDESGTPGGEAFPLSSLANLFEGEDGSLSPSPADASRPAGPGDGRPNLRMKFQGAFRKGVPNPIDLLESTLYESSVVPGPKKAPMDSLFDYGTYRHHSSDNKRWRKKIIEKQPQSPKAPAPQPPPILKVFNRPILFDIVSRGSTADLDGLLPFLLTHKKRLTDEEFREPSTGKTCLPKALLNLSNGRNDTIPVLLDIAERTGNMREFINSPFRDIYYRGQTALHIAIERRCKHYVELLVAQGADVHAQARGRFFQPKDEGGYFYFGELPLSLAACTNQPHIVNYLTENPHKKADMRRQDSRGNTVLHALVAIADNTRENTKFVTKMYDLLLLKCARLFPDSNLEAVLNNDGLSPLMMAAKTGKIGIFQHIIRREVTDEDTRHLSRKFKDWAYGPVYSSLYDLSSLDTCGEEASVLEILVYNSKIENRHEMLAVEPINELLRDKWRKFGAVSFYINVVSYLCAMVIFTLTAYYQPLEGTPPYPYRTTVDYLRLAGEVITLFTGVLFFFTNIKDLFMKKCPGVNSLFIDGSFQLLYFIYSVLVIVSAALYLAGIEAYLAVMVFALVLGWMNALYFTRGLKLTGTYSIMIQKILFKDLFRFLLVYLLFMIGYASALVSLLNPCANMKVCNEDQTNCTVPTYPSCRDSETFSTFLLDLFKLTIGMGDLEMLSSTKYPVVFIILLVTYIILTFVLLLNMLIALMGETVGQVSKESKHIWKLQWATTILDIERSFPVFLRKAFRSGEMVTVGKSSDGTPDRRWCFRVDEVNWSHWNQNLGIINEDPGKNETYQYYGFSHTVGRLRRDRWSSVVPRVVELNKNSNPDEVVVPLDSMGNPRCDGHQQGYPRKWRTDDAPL
Sequence of Transient receptor potential cation channel subfamily A member 1 (Homo sapiens) (O75762 whole entry): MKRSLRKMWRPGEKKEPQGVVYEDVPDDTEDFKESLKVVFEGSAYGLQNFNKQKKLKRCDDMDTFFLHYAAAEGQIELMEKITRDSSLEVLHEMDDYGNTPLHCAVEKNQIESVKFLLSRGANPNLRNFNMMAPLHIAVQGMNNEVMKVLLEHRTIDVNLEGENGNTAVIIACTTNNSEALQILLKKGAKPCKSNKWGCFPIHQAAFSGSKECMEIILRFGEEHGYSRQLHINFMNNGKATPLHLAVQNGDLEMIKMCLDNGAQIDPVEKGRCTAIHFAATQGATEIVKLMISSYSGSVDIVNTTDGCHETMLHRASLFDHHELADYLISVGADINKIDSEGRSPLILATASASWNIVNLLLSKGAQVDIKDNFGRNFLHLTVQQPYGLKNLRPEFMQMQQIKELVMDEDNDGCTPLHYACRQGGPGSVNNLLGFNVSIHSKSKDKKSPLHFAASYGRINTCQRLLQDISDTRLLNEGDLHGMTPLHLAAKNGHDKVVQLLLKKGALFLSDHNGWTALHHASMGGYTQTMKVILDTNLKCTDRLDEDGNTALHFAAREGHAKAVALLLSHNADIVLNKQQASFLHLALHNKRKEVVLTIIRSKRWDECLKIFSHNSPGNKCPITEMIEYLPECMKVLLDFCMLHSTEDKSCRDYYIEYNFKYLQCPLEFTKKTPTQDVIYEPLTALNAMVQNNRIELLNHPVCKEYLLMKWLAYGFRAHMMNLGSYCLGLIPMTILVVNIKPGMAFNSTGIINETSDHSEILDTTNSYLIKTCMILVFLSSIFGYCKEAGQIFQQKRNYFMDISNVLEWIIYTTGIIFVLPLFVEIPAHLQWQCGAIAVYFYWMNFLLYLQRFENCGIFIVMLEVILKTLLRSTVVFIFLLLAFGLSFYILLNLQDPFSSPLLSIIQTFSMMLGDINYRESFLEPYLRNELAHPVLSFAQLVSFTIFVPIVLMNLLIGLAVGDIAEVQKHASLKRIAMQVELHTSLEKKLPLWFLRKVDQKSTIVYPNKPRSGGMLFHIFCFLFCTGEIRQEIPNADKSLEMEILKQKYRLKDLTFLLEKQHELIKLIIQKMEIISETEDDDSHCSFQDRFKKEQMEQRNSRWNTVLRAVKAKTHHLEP

SMILES: C[C@@H]1O[C@@H](O[C@@H]2[C@@H](O)[C@H](OCCc3ccc(O)c(O)c3)O[C@H](CO[C@@H]3OC[C@](O)(CO)[C@H]3O)[C@H]2OC(=O)/C=C/c2ccc(O)c(O)c2)[C@H](O)[C@H](O)[C@H]1O
- inhibition ([1]; filed as antagonist): 58.8%
- IC50 [2]: 10.8 µM

SMILES: O=c1cc(-c2ccc(Br)cc2)oc2cc(O)ccc12
- inhibition [1]: 1.94%

SMILES: O=c1cc(-c2cccc(O)c2)oc2c(O)c(O)ccc12
- inhibition [1]: 31.4%

SMILES: COc1ccc(C2CC(=O)c3c(O)cccc3O2)cc1 (stereo not drawn)
- inhibition [1]: 4.96%

SMILES: COCOc1cc(OCOC)c2c(c1)OC(c1ccc(F)cc1)CC2=O (stereo not drawn)
- inhibition [1]: 5.55%

The next lines start with the values.

- inhibition ([1]; filed as antagonist): 51.7%
SMILES: O=c1cc(-c2ccc(O)cc2Br)oc2cc(O)cc(O)c12

- Activity [3]: inactive
- Activity [4]: inactive
- Activity [5]: inactive
- inhibition ([1]; filed as antagonist): 61.8%
- Activity [6]: inactive
- IC50 [2]: 0.62 µM
SMILES: COc1ccc(-c2cc(=O)c3c(O)cc(O)cc3o2)cc1 [ACACETIN]

- inhibition [1]: 4.68%
SMILES: COc1ccc(-c2cc(=O)c3c(O)cccc3o2)cc1

- inhibition [1]: 10.3%
SMILES: Cc1ccc(-c2cc(=O)c3c(O)cc(O)cc3o2)cc1

- inhibition [1]: 21.2%
SMILES: O=c1cc(-c2ccc(F)cc2)oc2cc(O)cc(O)c12

- inhibition [1]: 13%
SMILES: O=c1cc(-c2ccc(O)cc2F)oc2cc(O)cc(O)c12

- inhibition [1]: 3.81%
SMILES: O=c1cc(-c2ccc(OC(F)(F)F)cc2)oc2cc(O)cc(O)c12
